# Columns and labels:
# [1] = tested on: Head lice, Pediculus humanus capitis; assay: Test 1: in-vitro assay with head lice, test substances in basic solution; details: for Vitality of the lice after 120 min: dead / Vitality of the lice after 360 min: dead: number of dead lice of 5 incubated; for Vitality of the lice after 120 min: dead / Vitality of the lice after 360 min: dead / Vitality of the lice after 30 min: immobile / Vitality of the lice after 120 min: mobile / Vitality of the lice after 360 min: mobile: basic solution; for Vitality of the lice after 30 min: immobile: number of immobile lice of 5 incubated; for Vitality of the lice after 30 min: mobile / Vitality of the lice after 120 min: mobile / Vitality of the lice after 360 min: mobile: number of mobile lice of 5 incubated; for Vitality of the lice after 30 min: mobile: basic solution 10% lauryl glucoside, 5% glycerin, pH 6.0
# Experimental: Head lice, Pediculus humanus capitis, were obtained by combing infested children from whom assent and consent from the parents had been obtained.
# Lice were used for the experiments mostly immediately, but not later than 4 hours after removing from the head. Adult lice, mixed sexes, were fully immersed in the test solutions for 3 to 15 minutes, then thoroughly rinsed with plenty of water to remove any residuals of the test medication. Three replicates of 5 or 10 lice each, plus one control for each batch of lice, were used for any test formulation. The lice were transferred to dry filter paper and kept for observation for up to 24 hours.
# The solutions were formulated by addition of the tests substances listed in Table 1 to a basic solution consisting of 10% lauryl glucoside, 5% glycerin and purified water ad 100% and adjusted to pH 6.0 with citric acid. In each test solution 5 lice were incubated, in the controls consisting of the basic solution without any additions 10 lice were incubated.
# “Dead” means that neither movements of the legs nor of the intestine were observed.
# At 30 min only mobile or immobile lice were observed, whereas dead lice were observed only at 120 and 360 min.
# Aedes aegypti larvae = assay: Naringin against Aedes aegypti larvae, experiments in applicant's laboratory; details: thousand fold higher concentration of naringin than in the literature, without acetonitrile in the assay
# Text: A putative insecticidal activity of naringin is of interest in the present context.
SMILES,Vitality of the lice after 120 min: dead [1],Vitality of the lice after 360 min: dead [1],Vitality of the lice after 30 min: immobile [1],Vitality of the lice after 30 min: mobile [1],Vitality of the lice after 120 min: mobile [1],Vitality of the lice after 360 min: mobile [1],killing of Aedes aegypti larvae (Aedes aegypti larvae)
"COc1ccc([C@@H]2CC(=O)c3c(O)cc(O)cc3O2)cc1O [1.0% hesperetin, (S)-2,3-dihydro-5,7-dihydroxy-2-(3-hydroxy-4-methoxyphenyl)-4H-1-benzopyran-4-one]",0,0,0,5,5,5,
"COc1ccc([C@@H]2CC(=O)c3c(O)cc(O[C@@H]4O[C@H](CO[C@@H]5O[C@@H](C)[C@H](O)[C@@H](O)[C@H]5O)[C@@H](O)[C@H](O)[C@H]4O)cc3O2)cc1O [1.0% hesperidin, (2S)-7-((6-O-(6-desoxy-α-L-mannopyranosyl)-β-D-glucopyranosyl)oxy)-2,3-dihydro-5-hydroxy-2-(3-hydroxy-4-methoxyphenyl)-4H-1-benzopyran-4-one]",0,0,0,5,5,5,
"O=C1C[C@@H](c2ccc(O)cc2)Oc2cc(O)cc(O)c21 [1.0% naringenin, (S)-2,3-dihydro-5,7-dihydroxy-2-(4-hydroxyphenyl)-4H-1-benzopyran-4-one]",0,0,0,5,5,5,
"C[C@@H]1O[C@@H](O[C@H]2[C@H](Oc3cc(O)c4c(c3)O[C@H](c3ccc(O)cc3)CC4=O)O[C@H](CO)[C@@H](O)[C@@H]2O)[C@H](O)[C@H](O)[C@H]1O [1.0% naringin, 7-[[2-O-(6-desoxy-α-L-mannopyra-nosyl)-β-D-glucopyranosyl]oxy]-2,3-dihydro-5-hydroxy-2-(4-hydroxy-phenyl)-4H-1-benzopyran-4-one]",0,0,0,5,5,5,did not kill
"CCCCCCCCCCCCCCCCCCCCCC[N+](C)(C)C.[Cl-] [2.0% behentrim., behentrimonium chloride]",0,0,0,5,5,5,
"CCCCCCCCCCCCCCCC(=O)NCCC[N+](C)(C)C.[Cl-] [2.0% palmitamidopr., palmitamidopropyltrimonium chloride]",0,1,0,5,5,4,

# Reference: US10499637B2, “Compositions comprising flavonoid-containing extracts from plants of the genus citrus and/or isolated citrus flavonoids and specific cationic surface active agents, and said composition for use as an agent for treating infestations with head lice” (MEDA AB, priority 2009, dated 2019)
